Experiment: xn = mol fraction of the nth substance listed
Settings: 101 kPa, Liquid; for mass density: Vibrating tube method; for speed of sound: sound velocity cell

CC(=O)[O-].[NH3+]CCO [2-hydroxyethylammonium acetate] + O
Settings	mass density, 288.15 K [kg/m3]	mass density, 290.65 K [kg/m3]	mass density, 293.15 K [kg/m3]	mass density, 295.65 K [kg/m3]	speed of sound, 288.15 K [m/s]	speed of sound, 290.65 K [m/s]	speed of sound, 293.15 K [m/s]	speed of sound, 295.65 K [m/s]
x1 = 0.051	1055.26	1054.36	1053.41	1052.44	1676.3	1679	1681.4	1683.6
x1 = 0.1019	1085.14	1084.06	1082.96	1081.85	1768.9	1768.6	1768.1	1767.5
x1 = 0.1963	1116.52	1115.24	1113.95	1112.66	1839	1836.1	1833.1	1830.1
x1 = 0.2894	1131.28	1129.93	1128.59	1127.24	1851.1	1847.3	1843.4	1839.5
x1 = 0.3959	1140.75	1139.38	1138.01	1136.62	1843.1	1838.7	1834.2	1829.7
x1 = 0.5016	1145.83	1144.47	1143.09	1141.71	1833.6	1828.7	1823.9	1819.1
x1 = 0.5821	1148.34	1146.91	1145.54	1144.18	1831.6	1826.5	1821.6	–
x1 = 0.6837	1150.31	1148.88	1147.45	1146.02	1824.3	1818.9	1813.6	–
x1 = 0.7763	1152.17	1150.75	1149.34	1147.92	1824.4	1818.5	1812.9	–
x1 = 0.8761	1153.59	1152.16	1150.75	1149.33	1817.1	1810.7	1804.6	–
x1 = 0.9137	1153.92	1152.5	1151.09	1149.67	1819.5	1812.8	1806.5	–
x1 = 1	1154.7	1153.28	1151.87	1150.45	1817.2	1810	1803.2	–

Reference: the NIST ThermoML archive (doi:10.1016/j.jct.2011.01.014)
